The values below come from publication PMC5046737, “Target and Non-target Site Mechanisms Developed by Glyphosate-Resistant Hairy beggarticks (Bidens pilosa L.) Populations from Mexico” (Frontiers in Plant Science, 2016).

Molecules are shown by their SMILES.

The test system of experiment [1] is T1, EPSPS of the resistant R2 population (EPSPS1 and EPSPS2).
T1 construct: native enzyme in raw leaf extract; isozyme mix unknown
Kind of experiment: EPSPS activity in leaf extract, continuous phosphate release (EnzChek). The following applies: raw leaf extract, mixed isozymes; no EPSPS mutation found in this resistant population; read-out: I50. Format: biochemical, Bidens pilosa.

The subject of experiment [2] is T2, EPSPS of the susceptible (S) population (EPSPS1 and EPSPS2).
T2 construct: native enzyme in raw leaf extract; both isozymes expressed
Described as above. The following applies: raw leaf extract, mixed isozymes; 10 min at 360 nm; glyphosate 0-10000 μM; text prints 0.95 μM; read-out: I50. Format: biochemical, Bidens pilosa.
Text: EPSPS activity in leaf extract, continuous phosphate release (EnzChek) on EPSPS of the susceptible (S) population (EPSPS1 and EPSPS2)

Experiment [3] relates to EPSPS of the resistant R1 population (EPSPS1 and EPSPS2, mixed alleles). Conditions: read-out: I50; raw leaf extract, mixed isozymes and alleles (wild type, P106S, T102I/P106S); stated gain. The source says: EPSPS activity in leaf extract, continuous phosphate release (EnzChek) on EPSPS of the resistant R1 population (EPSPS1 and EPSPS2, mixed alleles)

`O=C(O)CNCP(=O)(O)O` [glyphosate]: the figures for the IC50 in experiment [1], in experiment [2] and in experiment [3] were 8.2 ± 1.1 µM, 0.96 µM and 123 ± 2.1 µM, respectively.
